This is an account of results in patent US9556437B2, “FAT1 gene in cancer and inflammation” (DEPARTMENT OF BIOTECHNOLOGY (DBT), priority 2012, dated 2017).

SMILES strings stand for the structures.

For data set [1], the system named is U87MG cells. The experiment in a line: In vitro Scratch Assay of cell migration. Type of data set: cell-based, human. The method, then: FIGS. 14A to 14D: Effect of NS-398 and FAT1 knockdown simultaneously on Cell Migration by In-vitro Scratch Assay. The in vitro Scratch Assay was performed at 72 hours after culturing cells as follows: At Day 0, 5,000 U87MG cells are plated per well of a 96 well plate. […] (C) Assay of cell migration by the Modified Boyden Chamber Assay under conditions of normoxia and hypoxia. (D) Quantitation of data from (C).
The Scratch Assay is performed at 72 hours after treatment. A scratch is made on the culture surface using a sterile 10 μl tip and cells were allowed to grow. Images were captured after every 3 hrs to monitor the closure of the wound in the culture surface for next 24 hrs.

The subject of data set [2] is colon, esophageal and pancreatic carcinoma cell lines. Conditions: Tsujii 1998, Zimmermann 1999, Molina 1999; cited from earlier work.
The test system of data set [3] is colorectal and lung carcinoma cell lines. The settings on record: Elder 1997, Liu 1998; cited from earlier work.
A further data set deals with COX-2 promoter. As to the kind of experiment: COX-2 promoter luciferase assay. The class given is cell-based, human. The settings on record: U87MG. The method, then:
AP-1 and COX-2 Promoter Luciferase Assay: U87MG cells (40000 cells/well) were plated in 6-well plates in triplicate on day zero. On day 1, cells were transfected with siFAT1 and siControl. On day 2 cells were transiently transfected with 4×AP-1-luciferase reporter plasmids as described previously. Cells were transfected with 1 μg of AP-17× luciferase reporter plasmid, along with 50 ng of pRL-TK (Renilla luciferase) control plasmid using LIPOFECTAMINE2000 as the transfection reagent. After 48 hrs, the cells were lysed by 1× passive-lysis-buffer (Promega, Madison, Wis., USA) and assayed for luciferase activity as previously described. For COX-2 luciferase assay U87MG cells were transfected with siFAT1 and siControl on day 1 and after 4 hrs incubation were treated with 10 μM SR11302. On day2 cells were transiently transfected with COX-2 reporter plasmid and again treated with 10 μM SR11302. After 48 hrs, the cells were assayed for luciferase activity.

For data set [4], the system named is U87MG cells. The experiment in a line: Toxicity of SR11302 to cells. The class given is cell-based, human. Conditions: 10 μM. The protocol: FIG. 11: Dose response curve of SR11302; U87MG cells were treated with increasing concentration of SR11302 from 0.1 μM to 10 μM.

With `CS(=O)(=O)Nc1ccc([N+](=O)[O-])cc1OC1CCCCC1` [NS398], the “inhibition of cell migration” value in the data set with U87MG cells [1] (Scratch Assay at 72 hours after treatment) is given as “about 70%”. The “effect on migration under hypoxic versus normoxic culture” value in the data set with U87MG cells [1] (hypoxic conditions) was “more pronounced”. Further, the “migration ability of cells” value with U87MG cells [1] (scratch and modified Boyden chamber assays, normoxic or hypoxic conditions (FIG. 14)) is “reduced”. In data set [2], the “growth of carcinoma cell lines” value is “growth-inhibitory effects”. For the same molecule, in data set [3], the apoptosis result is listed as “induce apoptosis” and the proliferation result was “inhibit proliferation”.
With `CC1=C(/C=C/C(=C/C=C/C(C)=C/C(=O)O)c2ccc(C)cc2)C(C)(C)CCC1` [SR11302], in the data set with COX-2 promoter (0.1 μM to 10 μM), the “dose response of COX-2 luciferase activity” value is “dose dependent decrease”. The “decrease in COX-2 luciferase activity” value in the data set on COX-2 promoter (vs siControl+DMSO, SR11302 10 μM, 48 hrs) amounted to 5 fold. Moreover, in the data set with U87MG cells [4], the “toxicity to the cells” value is recorded as “No toxicity”.
